# Assay results published in ChEMBL document CHEMBL3045542, “A quantitative structure-activity relationship study of herbicidal analogues of alpha-hydroxy-substituted 3-benzylidenepyrrolidene-2,4-diones” (2006).
# Key:
# Type in all cases: functional
# Echinochloa crus-galli [1] = test: Herbicidal activity against Echinochloa crus-galli (barnyard grass) assessed as inhibition of plant growth at 10 ug/mL by cup test
# Digitaria sanguinalis [2] = test: Herbicidal activity against Digitaria sanguinalis (hairy crabgrass) assessed as inhibition of plant growth at 750 g/ha applied as pre-emergence treatment; settings: for inhibition at 750 g/ha: Digitaria sanguinalis, pre-emergence
# Echinochloa crus-galli [3] = test: Herbicidal activity against Echinochloa crus-galli (barnyard grass) assessed as inhibition of plant growth at 187.5 g/ha applied as pre-emergence treatment; settings: for inhibition at 187.5 g/ha: Echinochloa crus-galli, pre-emergence
# Echinochloa crus-galli [4] = test: Herbicidal activity against Echinochloa crus-galli (barnyard grass) assessed as inhibition of plant growth at 750 g/ha applied as pre-emergence treatment; settings: for inhibition at 750 g/ha: Echinochloa crus-galli, pre-emergence
# Digitaria sanguinalis [5] = test: Herbicidal activity against Digitaria sanguinalis (hairy crabgrass) assessed as inhibition of plant growth at 93.75 g/ha applied as pre-emergence treatment; settings: for inhibition at 93.75 g/ha: Digitaria sanguinalis, pre-emergence
# Echinochloa crus-galli [6] = test: Herbicidal activity against Echinochloa crus-galli (barnyard grass) assessed as inhibition of plant growth at 375 g/ha applied as pre-emergence treatment; settings: for inhibition at 375 g/ha: Echinochloa crus-galli, pre-emergence
# Echinochloa crus-galli [7] = test: Herbicidal activity against Echinochloa crus-galli (barnyard grass) assessed as inhibition of plant growth at 93.75 g/ha applied as pre-emergence treatment; settings: for inhibition at 93.75 g/ha: Echinochloa crus-galli, pre-emergence
# Digitaria sanguinalis [8] = test: Herbicidal activity against Digitaria sanguinalis (hairy crabgrass) assessed as inhibition of plant growth at 187.5 g/ha applied as pre-emergence treatment; settings: for inhibition at 187.5 g/ha: Digitaria sanguinalis, pre-emergence
# Digitaria sanguinalis [9] = test: Herbicidal activity against Digitaria sanguinalis (hairy crabgrass) assessed as inhibition of plant growth at 375 g/ha applied as pre-emergence treatment; settings: for inhibition at 375 g/ha: Digitaria sanguinalis, pre-emergence
# [10] = tested as the Zn salt or complex
smiles,measurement,setting,value
Cc1cccc(/C(O)=C2\C(=O)CN(C(C)(C)C)C2=O)c1,inhibition at 10 µg/mL,Echinochloa crus-galli [1],5%
CCCc1ccc(/C(O)=C2\C(=O)CN(C(C)C)C2=O)cc1,inhibition at 10 µg/mL,Echinochloa crus-galli [1],27%
CCOc1ccc(/C(O)=C2\C(=O)CN(C3CC3)C2=O)cc1,inhibition at 10 µg/mL,Echinochloa crus-galli [1],78%
CCCOc1ccc(/C(O)=C2\C(=O)CN(C(C)C)C2=O)cc1,inhibition at 10 µg/mL,Echinochloa crus-galli [1],73%
CCCCOc1cccc(/C(O)=C2\C(=O)CN(C(C)C)C2=O)c1,inhibition at 10 µg/mL,Echinochloa crus-galli [1],47%
CC(C)N1CC(=O)/C(=C(/O)c2cccc(Oc3ccccc3)c2)C1=O,inhibition at 10 µg/mL,Echinochloa crus-galli [1],57%
COc1cc(OC(C)C)ccc1/C(O)=C1\C(=O)C(C)N(C(C)C)C1=O (stereo not given),inhibition at 10 µg/mL,Echinochloa crus-galli [1],9%
CC(C)c1ccc(/C(O)=C2\C(=O)CN(C(C)(C)C)C2=O)cc1,inhibition at 10 µg/mL,Echinochloa crus-galli [1],10%
CCOc1ccc(/C(O)=C2\C(=O)CN(C(C)CC)C2=O)cc1 (stereo not given),inhibition at 750 g/ha,Digitaria sanguinalis [2],96%
same,inhibition at 187.5 g/ha,Echinochloa crus-galli [3],28%
same,inhibition at 750 g/ha,Echinochloa crus-galli [4],93%
same,inhibition at 93.75 g/ha,Digitaria sanguinalis [5],18%
same,inhibition at 10 µg/mL,Echinochloa crus-galli [1],78%
same,inhibition at 375 g/ha,Echinochloa crus-galli [6],82%
same,inhibition at 93.75 g/ha,Echinochloa crus-galli [7],7%
same,inhibition at 187.5 g/ha,Digitaria sanguinalis [8],41%
same,inhibition at 375 g/ha,Digitaria sanguinalis [9],59%
CC(C)(C)c1ccc(/C(O)=C2\C(=O)CN(C(C)(C)C)C2=O)cc1,inhibition at 10 µg/mL,Echinochloa crus-galli [1],4%
CCOc1ccc(/C(O)=C2\C(=O)C(C)N(C(C)C)C2=O)c(OC)c1 (stereo not given),inhibition at 10 µg/mL,Echinochloa crus-galli [1],32%
CCC(C)N1CC(=O)/C(=C(/O)c2cc(OC)c(OC)cc2OC)C1=O (stereo not given),inhibition at 10 µg/mL,Echinochloa crus-galli [1],18%
O=C1CN(Cc2ccccc2)C(=O)/C1=C(\O)c1ccccc1,inhibition at 187.5 g/ha,Echinochloa crus-galli [3],0%
same,inhibition at 750 g/ha,Echinochloa crus-galli [4],0%
same,inhibition at 10 µg/mL,Echinochloa crus-galli [1],2%
same,inhibition at 375 g/ha,Echinochloa crus-galli [6],0%
same,inhibition at 93.75 g/ha,Echinochloa crus-galli [7],0%
CCC(C)N1CC(=O)/C(=C(/O)c2ccc(OC(C)C)cc2)C1=O (stereo not given),inhibition at 10 µg/mL,Echinochloa crus-galli [1],46%
COc1ccccc1/C(O)=C1\C(=O)CN(Cc2ccccc2)C1=O,inhibition at 10 µg/mL,Echinochloa crus-galli [1],14%
COc1ccc(C(=O)C2=C(O)N(C(C)C)CCC2=O)cc1,inhibition at 10 µg/mL,Echinochloa crus-galli [1],0%
CCCCOc1cccc(/C(O)=C2\C(=O)CN(C(C)CC)C2=O)c1 (stereo not given),inhibition at 10 µg/mL,Echinochloa crus-galli [1],32%
Cc1cccc(/C(O)=C2\C(=O)CN(C(C)C)C2=O)c1,inhibition at 10 µg/mL,Echinochloa crus-galli [1],49%
C=CCOc1ccc(/C(O)=C2\C(=O)CN(C(C)C)C2=O)cc1,inhibition at 750 g/ha,Digitaria sanguinalis [2],79%
same,inhibition at 187.5 g/ha,Echinochloa crus-galli [3],55%
same,inhibition at 750 g/ha,Echinochloa crus-galli [4],100%
same,inhibition at 93.75 g/ha,Digitaria sanguinalis [5],0%
same,inhibition at 10 µg/mL,Echinochloa crus-galli [1],78%
same,inhibition at 375 g/ha,Echinochloa crus-galli [6],95%
same,inhibition at 93.75 g/ha,Echinochloa crus-galli [7],30%
same,inhibition at 187.5 g/ha,Digitaria sanguinalis [8],36%
same,inhibition at 375 g/ha,Digitaria sanguinalis [9],74%
CCCCCc1ccc(/C(O)=C2\C(=O)CN(C3CC3)C2=O)cc1,inhibition at 10 µg/mL,Echinochloa crus-galli [1],5%
COc1ccccc1/C(O)=C1\C(=O)CN(C(C)C)C1=O,inhibition at 187.5 g/ha,Echinochloa crus-galli [3],0%
same,inhibition at 750 g/ha,Echinochloa crus-galli [4],73%
same,inhibition at 10 µg/mL,Echinochloa crus-galli [1],77%
same,inhibition at 375 g/ha,Echinochloa crus-galli [6],28%
same,inhibition at 93.75 g/ha,Echinochloa crus-galli [7],0%
CCOc1ccc(/C(O)=C2\C(=O)CN(C(C)C)C2=O)c(OCC)c1,inhibition at 10 µg/mL,Echinochloa crus-galli [1],26%
COc1ccc(/C([O-])=C2\C(=O)CN(C(C)C)C2=O)c(OC)c1.COc1ccc(/C([O-])=C2\C(=O)CN(C(C)C)C2=O)c(OC)c1.[Zn+2],inhibition at 750 g/ha,Digitaria sanguinalis [2]; [10],100%
same,inhibition (INH),Echinochloa crus-galli [3],85%
same,inhibition at 750 g/ha,Echinochloa crus-galli [4]; [10],100%
same,inhibition at 93.75 g/ha,Digitaria sanguinalis [5]; [10],15%
same,inhibition at 375 g/ha,Echinochloa crus-galli [6]; [10],100%
same,inhibition (INH),Echinochloa crus-galli [7],72%
same,inhibition at 187.5 g/ha,Digitaria sanguinalis [8]; [10],82%
same,inhibition at 375 g/ha,Digitaria sanguinalis [9]; [10],100%
COc1ccc(/C(O)=C2\C(=O)CN(C3CC3)C2=O)cc1,inhibition at 10 µg/mL,Echinochloa crus-galli [1],62%
CC(C)N1CC(=O)/C(=C(/O)c2ccc(C(C)(C)C)cc2)C1=O,inhibition at 10 µg/mL,Echinochloa crus-galli [1],28%
CC(C)N1CC(=O)/C(=C(/O)c2ccccc2Cl)C1=O,inhibition at 10 µg/mL,Echinochloa crus-galli [1],51%
COc1ccc(/C(O)=C2\C(=O)CN(Cc3ccccc3)C2=O)cc1,inhibition at 10 µg/mL,Echinochloa crus-galli [1],14%
CN1CC(=O)/C(=C(/O)c2cccc(Oc3ccccc3)c2)C1=O,inhibition at 10 µg/mL,Echinochloa crus-galli [1],53%
CCOc1ccc(/C(O)=C2\C(=O)CN(C(C)C)C2=O)cc1,inhibition (INH),Digitaria sanguinalis [2],93%
same,inhibition (INH),Echinochloa crus-galli [3],95%
same,inhibition (INH),Echinochloa crus-galli [4],100%
same,inhibition (INH),Digitaria sanguinalis [5],5%
same,inhibition at 10 µg/mL,Echinochloa crus-galli [1],79%
same,inhibition (INH),Echinochloa crus-galli [6],100%
same,inhibition (INH),Echinochloa crus-galli [7],36%
same,inhibition (INH),Digitaria sanguinalis [8],66%
same,inhibition (INH),Digitaria sanguinalis [9],77%
CCOc1ccc(/C(O)=C2\C(=O)CN(C(C)C)C2=O)c(OC)c1,inhibition at 10 µg/mL,Echinochloa crus-galli [1],69%
Cc1ccc(/C(O)=C2\C(=O)CN(C(C)C)C2=O)cc1,inhibition at 10 µg/mL,Echinochloa crus-galli [1],77%
CCOc1ccc(/C(O)=C2\C(=O)CN(C(C)CC)C2=O)c(OC)c1 (stereo not given),inhibition at 10 µg/mL,Echinochloa crus-galli [1],68%
CCCCCc1ccc(/C(O)=C2\C(=O)CN(C)C2=O)cc1,inhibition at 10 µg/mL,Echinochloa crus-galli [1],16%
CCCCCc1ccc(/C(O)=C2\C(=O)CN(C(C)C)C2=O)cc1,inhibition at 10 µg/mL,Echinochloa crus-galli [1],6%
COc1ccc(/C(O)=C2\C(=O)CN(C3CC3)C2=O)c(OC)c1,inhibition at 10 µg/mL,Echinochloa crus-galli [1],78%
CCCCOc1ccc(/C(O)=C2\C(=O)CN(C(C)C)C2=O)cc1,inhibition at 10 µg/mL,Echinochloa crus-galli [1],21%
